Reference: patent US20250236578A1, “NOVEL CANNABINOID DERIVATIVES” (CANNASOUL ANALYTICS LTD., priority 2021, published 2025)

How the values were obtained:
Human adrenal cells = assay: Steroidogenesis: cortisol secretion by Forskolin-stimulated human adrenal cells (ELISA); type: cell-based; settings: 24 h, Forskolin 10 μM
Procedure: The effect of the compounds according to certain embodiments of the present invention as inhibitors of steroidogenesis was assessed. Human adrenal cells were thawed and cultured in a suitable medium at a final concentration of 5×10^5 cells per mL (performed in triplicates). Following 24 hours of incubation, cells were treated with 10 μM Forskolin. After 48 hours of incubation, cells were treated with controls (1 μM Prochloraz, and 0.2 μg/mL or 1 μg/mL CBD) and compounds according to embodiments of the present invention for 24 hours. Next, supernatants were collected, and the secretion levels of cortisol were measured by ELISA (R&D systems). Optical density was determined by ‘CLARIOStar-plus’® plate-reader. Cortisol concentration (ng/ml) was calculated using a standard curve.

T24 cell line = assay: PI-positive cell count, bladder cancer cells (IncuCyte); type: cell-based, Human; settings: for Number of cells (PI-positive): 24 h post-treatment
Procedure: (§1) The effect of the compounds according to certain embodiments of the present invention as anti-cancer agents was assessed. Human cancer cells of prostate (PC3 cell line), bladder (T24 cell line), or breast (MDA-MB-231 cell line) cancers were thawed and cultured in suitable media at a final concentration of 3×10^5 cells/mL and tested in triplicates. Following 24 hours of incubation, cells were treated with the tested compounds at 2 μg/ml and 4 μg/ml concentrations or controls (cells were grown in starvation medium and treated with Mitomycin C). Mitomycin C is a potent antineoplastic agent that creates DNA cross-linkage resulting in cell arrest and consequently cell death. It is used to treat various types of cancers such as bladder and breast cancers. In in-vitro models, it acts as a proliferation inhibitor as it induces G0-G1 cell growth arrest. The number of cells in each sample was quantified immediately upon treatment (time-point 0) and every 24 hours until full cell confluency was reached. 24 hours post-treatment, PI (1 μg/ml) was added to the treated cells for 1 hour. Using cell-by-cell analysis (IncuCyte™ cell imager), the PI-positive cells were counted and compared to the relative number of cells in the non-treated (NT) wells.

MDA-MB-231 cell line = assay: PI-positive cell count, breast cancer cells (IncuCyte); type: cell-based, Human; settings: for Number of cells (PI-positive): 24 h post-treatment
Procedure: as §1

PC3 cell line = assay: PI-positive cell count, prostate cancer cells (IncuCyte); type: cell-based, Human; settings: for Number of cells (PI-positive): 24 h post-treatment
Procedure: as §1

[1] = Breast cancer MDA-MB-231, 2 μg/ml
[2] = Breast cancer MDA-MB-231, 4 μg/ml

SMILES | Cortisol (Human adrenal cells; inhibitor 0.2 μg/mL) [ng/mL] | Cortisol % of Forskolin (Human adrenal cells; inhibitor 0.2 μg/mL) [%] | Cortisol (Human adrenal cells; inhibitor 1 μg/mL) [ng/mL] | Cortisol % of Forskolin (Human adrenal cells; inhibitor 1 μg/mL) [%] | % NT (PI-positive cells relative to non-treated) (T24 cell line; Bladder cancer T24, 2 μg/ml) [%] | Number of cells (PI-positive) (T24 cell line; Bladder cancer T24, 2 μg/ml) | % NT (PI-positive cells relative to non-treated) (T24 cell line; Bladder cancer T24, 4 μg/ml) [%] | Number of cells (PI-positive) (T24 cell line; Bladder cancer T24, 4 μg/ml) | % NT (PI-positive cells relative to non-treated) (MDA-MB-231 cell line; [1]) [%] | Number of cells (PI-positive) (MDA-MB-231 cell line; [1]) | % NT (PI-positive cells relative to non-treated) (MDA-MB-231 cell line; [2]) [%] | Number of cells (PI-positive) (MDA-MB-231 cell line; [2]) | % NT (PI-positive cells relative to non-treated) (PC3 cell line; Prostate cancer PC3, 2 μg/ml) [%] | Number of cells (PI-positive) (PC3 cell line; Prostate cancer PC3, 2 μg/ml) | % NT (PI-positive cells relative to non-treated) (PC3 cell line; Prostate cancer PC3, 4 μg/ml) [%] | Number of cells (PI-positive) (PC3 cell line; Prostate cancer PC3, 4 μg/ml)
C=C(C)[C@@H]1CCC(C)=C[C@H]1c1c(O)cc(CCCCC)cc1O [CBD, cannabidiol, reference compound] | 101 | 95 | 62 | 58 | 156 | 171.47 | 1794 | 1969.93 | 175 | 89.40 | 1325 | 675.73 | 90 | 22.53 | 320 | 80.13
CCCCCCc1cc(O)c(C2C=C(C)CCC2C(C)(C)O)c(O)c1 (stereo not drawn) [Formula 1] | 37 | 35 | 24 | 22 | – | – | – | – | – | – | – | – | 216 | 54.13 | 260 | 65.27
CCCCCc1cc(O)c(C2CC(C)CCC2C(C)(C)O)c(O)c1 (stereo not drawn) [Formula 2] | 100 | 94 | 77 | 72 | – | – | – | – | – | – | – | – | 307 | 76.93 | 363 | 90.93
CCCCCCCc1cc(O)c(C2C=C(C)CCC2C(C)(C)O)c(O)c1 (stereo not drawn) [Formula 4] | 38 | 36 | 35 | 32 | 108 | 118.20 | 703 | 771.60 | 120 | 61.07 | 1417 | 722.47 | 228 | 57.27 | 2810 | 704.33
CCCCCCC(C)(C)c1cc(O)c(C2C=C(C)CCC2C(C)(C)O)c(O)c1 (stereo not drawn) [Formula 7] | 39 | 37 | 47 | 44 | 429 | 470.67 | 1156 | 1269.33 | 277 | 141.47 | 2197 | 1120.53 | 326 | 81.80 | 4139 | 1037.53
CCCCCc1cc(O)c(C2C=C(C)CCC2C(C)(C)O)c(O)c1C(=O)OC (stereo not drawn) [Formula 12] | 43 | 41 | 45 | 42 | – | – | – | – | – | – | – | – | 215 | 53.93 | 390 | 97.80
CCCCCc1cc(O)c(C2C=C(C)CCC2C(C)(C)O)c(O)c1C(=O)NCCCN1CCOCC1 (stereo not drawn) [Formula 14] | 41 | 39 | 45 | 42 | – | – | – | – | – | – | – | – | – | – | – | –
CCCN(CCOc1c(Cl)cc(Cl)cc1Cl)C(=O)n1ccnc1 [Prochloraz, reference compound] | – | – | 23 | 22 | – | – | – | – | – | – | – | – | – | – | – | –
